# Results reported in patent US20100004459A1, “2-PHENYLNICOTINIC ACID DERIVATIVE” (NIPPON ZOKI PHARMACEUTICAL CO., LTD., priority 2006, published 2010).
# Columns and labels:
# [1] = target: T1, xanthine oxidase (Bos taurus, UniProt P80457); experiment: Test for xanthine oxidase inhibitory activity; assay type: biochemical; conditions: xanthine oxidase derived from milk (Sigma); substrate xanthine; uric acid production at OD 292 nm, 37° C.
# T1 construct: derived from milk; manufactured by Sigma; purchased Sigma; host or cells: milk (natural source)
# T1 sequence (P80457 whole entry): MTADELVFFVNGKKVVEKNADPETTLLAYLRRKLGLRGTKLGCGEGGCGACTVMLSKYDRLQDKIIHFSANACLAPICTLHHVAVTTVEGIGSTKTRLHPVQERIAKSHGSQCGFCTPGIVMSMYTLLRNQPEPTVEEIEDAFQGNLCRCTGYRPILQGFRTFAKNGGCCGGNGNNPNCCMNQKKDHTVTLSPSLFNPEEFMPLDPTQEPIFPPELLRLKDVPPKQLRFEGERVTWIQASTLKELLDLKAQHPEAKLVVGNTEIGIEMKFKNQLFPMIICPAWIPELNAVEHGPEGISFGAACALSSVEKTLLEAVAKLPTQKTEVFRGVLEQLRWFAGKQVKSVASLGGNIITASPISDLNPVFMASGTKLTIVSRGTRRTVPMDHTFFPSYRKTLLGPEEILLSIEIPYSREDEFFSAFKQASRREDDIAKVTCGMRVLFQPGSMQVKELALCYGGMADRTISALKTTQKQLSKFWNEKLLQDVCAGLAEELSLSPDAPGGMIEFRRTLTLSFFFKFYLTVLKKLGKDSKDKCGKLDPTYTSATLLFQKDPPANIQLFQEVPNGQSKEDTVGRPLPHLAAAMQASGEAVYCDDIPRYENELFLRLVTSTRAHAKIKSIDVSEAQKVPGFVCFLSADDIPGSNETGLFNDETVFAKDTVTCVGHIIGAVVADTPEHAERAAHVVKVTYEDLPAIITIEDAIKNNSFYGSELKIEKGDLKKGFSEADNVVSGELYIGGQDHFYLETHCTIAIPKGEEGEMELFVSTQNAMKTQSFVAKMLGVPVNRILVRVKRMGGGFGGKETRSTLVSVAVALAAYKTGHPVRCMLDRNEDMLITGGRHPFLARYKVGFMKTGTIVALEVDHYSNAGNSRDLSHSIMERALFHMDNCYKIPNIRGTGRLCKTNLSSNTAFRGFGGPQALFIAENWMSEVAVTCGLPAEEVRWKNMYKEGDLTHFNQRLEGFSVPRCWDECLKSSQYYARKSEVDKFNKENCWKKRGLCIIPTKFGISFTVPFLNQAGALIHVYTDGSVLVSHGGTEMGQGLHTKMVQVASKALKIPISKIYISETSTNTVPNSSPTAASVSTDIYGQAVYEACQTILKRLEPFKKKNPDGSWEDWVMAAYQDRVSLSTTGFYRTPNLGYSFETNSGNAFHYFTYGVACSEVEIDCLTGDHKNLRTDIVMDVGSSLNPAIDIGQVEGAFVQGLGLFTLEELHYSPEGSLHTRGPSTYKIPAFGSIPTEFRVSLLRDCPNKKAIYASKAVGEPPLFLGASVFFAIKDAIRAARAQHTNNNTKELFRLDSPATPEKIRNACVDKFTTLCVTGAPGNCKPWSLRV
# Procedure: Evaluation of inhibitory activity of the present invention to xanthine oxidase was conducted using xanthine as a substrate by measuring the amount of uric acid produced by xanthine oxidase which is an oxidizing enzyme therefor. Thus, xanthine oxidase (0.01 unit/L, 20 μL/well; derived from milk; manufactured by Sigma), diethylenetriamine pentaacetate (0.01 mol/L, 20 μL/well), phosphate buffer (20 μL/well), distilled water (100 μL/well) and a diluted solution (20 μL/well) of a test substance were mixed in a 96-well quartz microplate. After preincubating for 5 minutes in a microplate spectrophotometer warmed at 37° C., xanthine (1 mmol/L, 20 μL/well) was added. The changes with elapse of time in OD 292 nm based on the production of uric acid was measured using a microplate spectrophotometer warmed at 37° C. whereby the initial reaction velocity was measured. Xanthine oxidase inhibitory activity was calculated by the following formula and concentration of the test substance for 50% suppression (IC50 value) was calculated.
# Inhibition Rate(%)={[(Initial Reaction Velocity of the Reaction Control)-(Initial Reaction Velocity upon Addition of Test Substance)]/[Initial Reaction Velocity of the Reaction Control]}×100
# [2] = test system: model rats of fructose-loaded hypertriglyceridemia; experiment: Model rats of fructose-loaded hypertriglyceridemia: action for lowering of triglyceride in serum; assay type: in vivo; conditions: Rattus norvegicus, po; male SD rats, 75% fructose solution for three days; 100 mg/kg orally once daily; serum 2 hours after final administration; read-out: Inhibition Rate (%) Action for lowering of triglyceride
# Procedure: (§1) The test was conducted according to a method of Kusama, et al. (Folia Pharmacologica Japonica, volume 92, pages 175 to 180, 1988). Thus, male rats of SD strain of 6 to 7 weeks age were made in free access to a 75% (w/v) D(−)-fructose solution for three days. During the period of fructose ingestion, a test substance (100 mg/kg) was suspended in 1% methyl cellulose and orally administered once daily. After 2 hours from the final administration, about 500 μL per rat of blood was collected using a hematocrit capillary from orbital venous plexus under anesthetization with ether and centrifuged (3000 rpm at 4° C. for 20 minutes) whereupon the serum was prepared.
# (1) Action for Lowering of Triglyceride in Serum
# The triglyceride (TG) in the serum was measured by a Triglyceride E-Test Wako (manufactured by Wako Pure Chemical Industries, Ltd.) and each TG lowering rate was determined by the following formula.
# TG Lowering Rate(%)={[(TG Value of Control Animal)−(TG Value of Animal Administered with Test Substance)]/[(TG Value of Control Animal)-(TG Value of Untreated Animal)]}×100
# [3] = test system: model rats of fructose-loaded hypertriglyceridemia; experiment: Model rats of fructose-loaded hypertriglyceridemia: action for lowering of uric acid in serum; assay type: in vivo; conditions: Rattus norvegicus, po; male SD rats, 75% fructose solution for three days; 100 mg/kg orally once daily; serum 2 hours after final administration; read-out: Inhibition Rate (%) Action for lowering of uric acid
# Procedure: as §1
# (2) Action for Lowering of Uric Acid in Serum
# Uric acid value in the serum was measured by a Uric acid C-Test Wako (manufactured by Wako Pure Chemical Industries, Ltd.) using the above serum and each uric acid lowering rate was determined by the following formula.
# Uric Acid Lowering Rate(%)={[(Uric Acid Value of Control Animal)-(Uric Acid Value of Animals Administered with Test Substance)]/[Uric Acid Value of Control Animal]}×100
SMILES,melting point,IC50 [1],inhibition in vivo at 100 mg/kg [2],inhibition in vivo at 100 mg/kg [3]
"COc1ccc(-c2ncccc2C(=O)O)cc1C#N [Example 43, 2-(3-Cyano-4-methoxyphenyl)nicotinic acid]",254 to 255 °C,,,
"N#Cc1cc(-c2ncccc2C(=O)O)ccc1OCCCCc1ccccc1C(F)(F)F [Example 126, 2-{3-Cyano-4-[4-(2-trifluoromethylphenyl)butoxy]phenyl}nicotinic acid]",,26 nM,,
"N#Cc1cc(-c2ncccc2C(=O)O)ccc1OCCC1CCCCC1 [Example 48, 2-[3-Cyano-4-(2-cyclohexylethoxy)phenyl]nicotinic acid]",171 to 172 °C,38 nM,,
"COc1ccccc1CC(C)(C)COc1ccc(-c2ncccc2C(=O)O)cc1C#N [Example 112, 2-{3-Cyano-4-[2,2-dimethyl-3-(2-methoxyphenyl)propoxy]phenyl}nicotinic acid]",,28 nM,,
"N#Cc1cc(-c2ncccc2C(=O)O)ccc1OCCCCc1ccccc1F [Example 64, 2-{3-Cyano-4-[4-(2-fluorophenyl)butoxy]phenyl}nicotinic acid]",151 to 152 °C,33 nM,,
"COc1ccc(CC(C)(C)COc2ccc(-c3ncccc3C(=O)O)cc2C#N)cc1 [Example 104, 2-{3-Cyano-4-[2,2-dimethyl-3-(4-methoxyphenyl)propoxy]phenyl}nicotinic acid]",,13 nM,,
"CC(C)(C)c1cc(CCCCOc2ccc(-c3ncccc3C(=O)O)cc2C#N)cc(C(C)(C)C)c1O [Example 90, 2-{3-Cyano-4-[4-(3,5-di-tert-butyl-4-hydroxyphenyl)butoxy]phenyl}nicotinic acid]",,37 nM,,
"N#Cc1cc(-c2ncccc2C(=O)O)ccc1OCCCc1ccccc1 [Example 116, 2-[3-Cyano-4-(3-phenylpropoxy)phenyl]nicotinic acid]",,52 nM,,
"N#Cc1cc(-c2ncccc2C(=O)O)ccc1OCc1ccc(C(F)(F)F)cc1 [Example 50, 2-[3-Cyano-4-(4-trifluoromethylbenzyloxy)phenyl]nicotinic acid]",226 to 227 °C,83 nM,,
"N#Cc1cc(-c2ncccc2C(=O)O)ccc1OCC1CCC1 [Example 46, 2-(3-Cyano-4-cyclobutylmethoxyphenyl)nicotinic acid]",204 to 205 °C,83 nM,,
"N#Cc1cc(-c2ncccc2C(=O)O)ccc1OCCCc1ccccc1F [Example 60, 2-{3-Cyano-4-[3-(2-fluorophenyl)propoxy]phenyl}nicotinic acid]",173 to 174 °C,49 nM,,
"N#Cc1cc(-c2ncccc2C(=O)O)ccc1OCCCc1ccccc1C(F)(F)F [Example 118, 2-{3-Cyano-4-[3-(2-trifluoromethylphenyl)propoxy]phenyl}nicotinic acid]",,12 nM,,
"N#Cc1cc(-c2ncccc2C(=O)O)ccc1OCCCOc1ccc(OC(F)(F)F)cc1Cl [Example 69, 2-{4-[3-(2-Chloro-4-trifluoromethoxyphenoxy)propoxy]-3-cyanophenyl}nicotinic acid]",159 to 160 °C,58 nM,,
"N#Cc1cc(-c2ncccc2C(=O)O)ccc1OCC1CC1 [Example 45, 2-(3-Cyano-4-cyclopropylmethoxyphenyl)nicotinic acid]",203 to 204 °C,,,
"CC(C)(COc1ccc(-c2ncccc2C(=O)O)cc1C#N)Cc1ccccc1C(F)(F)F [Example 132, 2-{3-Cyano-4-[2,2-dimethyl-3-(2-trifluoromethylphenyl)propoxy]phenyl}nicotinic acid]",,15 nM,,
"COc1ccc(CCCCOc2ccc(-c3ncccc3C(=O)O)cc2C#N)cc1 [Example 134, 2-{3-Cyano-4-[4-(4-methoxyphenyl)butoxy]phenyl}nicotinic acid]",,18 nM,,
"CC(C)(COc1ccc(-c2ncccc2C(=O)O)cc1C#N)Cc1ccccc1 [Example 80, 2-[3-Cyano-4-(2,2-dimethyl-3-phenylpropoxy)phenyl]nicotinic acid]",196 to 197 °C,38 nM,,
CC(C)(C)c1cc(CCCOc2ccc(-c3ncccc3C(=O)O)cc2C#N)cc(C(C)(C)C)c1O [Example 88],,47 nM,,

SMILES,melting point,IC50 [1],inhibition in vivo at 100 mg/kg [2],inhibition in vivo at 100 mg/kg [3]
"COc1ccc(CCOc2ccc(-c3ncccc3C(=O)O)cc2C#N)cc1 [Example 53, 2-[3-Cyano-4-(4-methoxyphenethyloxy)phenyl]nicotinic acid]",183 to 184 °C,58 nM,,
"Cc1ccccc1CCOc1ccc(-c2ncccc2C(=O)O)cc1C#N [Example 102, 2-[3-Cyano-4-(2-methylphenethyloxy)-phenyl]nicotinic acid]",,53 nM,28.4%,25.2%
"N#Cc1cc(-c2ncccc2C(=O)O)ccc1OCCCc1ccc(F)cc1 [Example 61, 2-{3-Cyano-4-[3-(4-fluorophenyl)propoxy]phenyl}nicotinic acid]",177 to 178 °C,56 nM,,
"N#Cc1cc(-c2ncccc2C(=O)O)ccc1N1CCCCCC1 [Example 138, 2-(4-Azepan-1-yl-3-cyanophenyl)nicotinic acid]",,34 nM,,
"CC(C)(CCc1ccccc1)COc1ccc(-c2ncccc2C(=O)O)cc1C#N [Example 81, 2-[3-Cyano-4-(2,2-dimethyl-4-phenylbutoxy)phenyl]nicotinic acid]",172 to 173 °C,16 nM,,
"CCCCCCOc1ccc(-c2ncccc2C(=O)O)cc1C#N [Example 49, 2-(3-Cyano-4-hexyloxyphenyl)nicotinic acid]",187 to 188 °C,63 nM,,
"N#Cc1cc(-c2ncccc2C(=O)O)ccc1OCCCCc1ccc(C(F)(F)F)cc1 [Example 63, 2-{3-Cyano-4-[4-(4-trifluoromethylphenyl)butoxy]phenyl}nicotinic acid]",165 to 166 °C,97 nM,,
"CCC1(COc2ccc(-c3ncccc3C(=O)O)cc2C#N)CCCC1 [Example 76, 2-[3-Cyano-4-(1-ethylcyclopentylmethoxy)phenyl]nicotinic acid]",196 to 197 °C,17 nM,,
"CC(C)(C)COc1ccc(-c2ncc(F)cc2C(=O)O)cc1C#N [Example 140, 2-[3-Cyano-4-(2,2-dimethylpropoxy)phenyl]-5-fluoronicotinic acid]",,40 nM,,
"COc1ccc(C(C)(C)COc2ccc(-c3ncccc3C(=O)O)cc2C#N)cc1 [Example 122, 2-{3-Cyano-4-[2-methyl-2-(4-methoxyphenyl)propoxy]phenyl}nicotinic acid]",,91 nM,,
"COc1ccc(CCCOc2ccc(-c3ncccc3C(=O)O)cc2C#N)cc1 [Example 120, 2-{3-Cyano-4-[3-(4-methoxyphenyl)propoxy]phenyl}nicotinic acid]",,35 nM,,
"CC(C)COc1ccc(-c2ncccc2C(=O)O)cc1C#N [Example 44, 2-(3-Cyano-4-isobutoxyphenyl)nicotinic acid]",178 to 179 °C,91 nM,,
"CC(C)(COc1ccc(-c2ncccc2C(=O)O)cc1C#N)Cc1ccc(C(F)(F)F)cc1 [Example 106, 2-{3-Cyano-4-[2,2-dimethyl-3-(4-trifluoromethylphenyl)propoxy]phenyl}nicotinic acid]",,25 nM,,
"CCCCC(C)(C)COc1ccc(-c2ncccc2C(=O)O)cc1C#N [Example 73, 2-[3-Cyano-4-(2,2-dimethylhexyloxy)phenyl]nicotinic acid]",155 to 156 °C,21 nM,,
"CS(=O)(=O)Oc1ccc(CCOc2ccc(-c3ncccc3C(=O)O)cc2C#N)cc1 [Example 86, 2-{3-Cyano-4-[2-(4-methanesulfonyloxyphenyl)ethoxy]phenyl}nicotinic acid]",,99 nM,,
"Cc1ccc(C)c(CCOc2ccc(-c3ncccc3C(=O)O)cc2C#N)c1 [Example 130, 2-[3-Cyano-4-(2,5-dimethylphenethyloxy)phenyl]nicotinic acid]",,72 nM,,
"N#Cc1cc(-c2ncccc2C(=O)O)ccc1OCCCOc1ccc(Oc2ccccc2)cc1 [Example 71, 2-{3-Cyano-4-[3-(4-phenoxyphenoxy)propoxy]phenyl}nicotinic acid]",149 to 150 °C,90 nM,,
